Test results: US20080200444A1, “SOLUBLE EPOXIDE HYDROLASE INHIBITORS” (Arete Therapeutics, Inc., priority 2006, published 2008)

System: soluble epoxide hydrolase (sEH)
Assay: Fluorescent assay for mouse and human soluble epoxide hydrolase (CMNPC substrate)
Assay type: biochemical
Settings: inhibitor at 50 nM; recombinant sEH, CMNPC substrate 5 μM, 30° C., pH 7.0; mouse or human enzyme not given
Text: Fluorescent Assay for Mouse and Human Soluble Epoxide Hydrolase
Recombinant mouse sEH (MsEH) and human sEH (HsEH) were produced in a baculovirus expression system as previously reported. Grant et al., J. Biol. Chem., 268:17628-17633 (1993); Beetham et al., Arch. Biochem. Biophys., 305:197-201 (1993). The expressed proteins were purified from cell lysate by affinity chromatography. Wixtrom et al., Anal. Biochem., 169:71-80 (1988). Protein concentration was quantified using the Pierce BCA assay using bovine serum albumin as the calibrating standard. The preparations were at least 97% pure as judged by SDS-PAGE and scanning densitometry. They contained no detectable esterase or glutathione transferase activity which can interfere with the assay. The assay was also evaluated with similar results in crude cell lysates or homogenate of tissues.
The IC50s for each inhibitor were according to the following procedure:
Cyano(2-methoxynaphthalen-6-yl)methyl(3-phenyloxiran-2-yl)methyl carbonate (CMNPC; Jones P. D. et. al.; Analytical Biochemistry 2005; 343: pp.66-75)
Bis/Tris HCl 25 mM pH 7.0 containing 0.1 mg/mL of BSA (buffer A)
CMNPC at 0.25 mM in DMSO.
Mother solution of enzyme in buffer A (Mouse sEH at 6 μg/mL and Human sEH at 5 μg/mL).
Inhibitor dissolved in DMSO at the appropriate concentration.
In a black 96 well plate, fill all the wells with 150 μL of buffer A.
Add 2 μL of DMSO in well A2 and A3, and then add 2 μL of inhibitor solution in A1 and A4 through A12.
Add 150 μL of buffer A in row A, then mix several time and transfer 150 μL to row B. Repeat this operation up to row H. The 150 μL removed from row H is discarded.
Add 20 μL of buffer A in column 1 and 2, then add 20 μL of enzyme solution to column 3 to 12.
Incubate the plate for 5 minutes in the plate reader at 30° C.
During incubation prepare the working solution of substrate by mixing 3.68 mL of buffer A (4×0.920 mL) with 266 μL (2×133 μL) of substrate solution).
At t=0, add 30 μL of working substrate solution with multi-channel pipette labeled “Briggs 303” and start the reading ([S]final: 5 μM).
Read with ex: 330 nm (20 nm) and em: 465 nm (20 nm) every 30 second for 10 minutes. The velocities are used to analyze and calculate the IC50s.

% Inhibition at 50 nM [%] | Structure (SMILES)
76 | CS(=O)(=O)N1CCCC(NC(=O)NC23CC4CC(CC(C4)C2)C3)C1 (stereo not shown) [Compound 2, 1-Adamantan-1-yl-3-(1-methanesulfonyl-piperidin-3-yl)-urea]
94 | O=C(NC1CCCN(S(=O)(=O)c2ccc(Cl)cc2)C1)NC12CC3CC(CC(C3)C1)C2 (stereo not shown) [Compound 3, 1-Adamantan-1-yl-3-[1-(4-chloro-benzenesulfonyl)-piperidin-3-yl]-urea]
95 | O=C(NC1CCCN(S(=O)(=O)c2cccc(C(F)(F)F)c2)C1)NC12CC3CC(CC(C3)C1)C2 (stereo not shown) [Compound 4, 1-Adamantan-1-yl-3-[1-(3-trifluoromethyl-benzenesulfonyl)-piperidin-3-yl]-urea]

Structure (SMILES) | % Inhibition at 50 nM [%]
CC(=O)N1CCCC(NC(=O)NC23CC4CC(CC(C4)C2)C3)C1 (stereo not shown) [Compound 1, 1-(1-Acetyl-piperidin-3-yl)-3-adamantan-1-yl-urea] | 69
